Results on two molecules are retold here after patent publication US20200399222A1, “PICOLINAMIDES AS FUNGICIDES” (Dow AgroSciences LLC, priority 2018, published 2020).

Holding throughout (assay type): in vivo
The subject of one experiment is Zymoseptoria tritici. In words: Leaf blotch of wheat (SEPTTR) disease control on wheat seedlings. Particulars: Low volume application, 121.5 g/ha.
In a further experiment the test system is Puccinia triticina. In words: Wheat brown rust (PUCCRT) disease control on wheat seedlings. The settings on record: Low volume application, 121.5 g/ha. The gist of the method: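 Yuma wheat seedlings (first leaf emerged) sprayed to run-off with compound in acetone plus nine volumes water containing 110 ppm Triton X-100, or track-sprayed as EC formulations with 0.1% Trycol 5941. Rust spores inoculated before or after treatment; overnight dark dew, 22 °C, 100% RH, then greenhouse at 24 °C.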

The next experiment has as its system Phakopsora pachyrhizi. Nature of the experiment: Asian soybean rust (PHAKPA) disease control on soybean seedlings. The settings on record: Phakopsora pachyrhizi, High volume application at 25 ppm. In short, it runs like this: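 Compounds in acetone diluted with nine volumes of water containing 0.011% Tween 20, sprayed to run-off on two-week-old Williams 82 soybean seedlings; inoculation 3 days before or 1 day after treatment. Plants held 24 h in dark dew room at 22° C, 100% RH, then at 23° C; disease severity scored on sprayed leaves.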

In a further experiment the test system is Alternaria solani. In words: Tomato early blight (ALTESO) disease control on tomato plants. The settings on record: 1DP test at 100 ppm. The protocol: Technical grades of materials were dissolved in acetone, which were then mixed with nine volumes of water containing 110 ppm Triton X-100. The fungicide solutions were applied onto wheat seedlings using an automated booth sprayer to run-off. All sprayed plants were allowed to air dry prior to further handling. All fungicides were evaluated using the aforementioned method for their activity vs. all target diseases, unless stated otherwise. Wheat leaf blotch and brown rust activity were also evaluated using track spray applications, in which case the fungicides were formulated as EC formulations, containing 0.1% Trycol 5941 in the spray solutions. Example D: Evaluation of Fungicidal Activity: Tomato Early Blight (Alternaria solani; Bayer Code […]) Tomato plants (variety Outdoor Girl) were propagated in soil-less Metro mix, with each pot having one plant, and used when 12 to 14 days old. Test plants were inoculated with an aqueous spore suspension of Alternaria solani 24 hr after fungicide treatments. After inoculation the plants were kept in 100% relative humidity (one day in a dark dew chamber followed by two to three days in a lighted dew chamber at 20° C.) to permit spores to germinate and infect the leaf. The plants were then transferred to a growth room at 22° C. for disease to develop. […]

Experiment [1] has as its system Pseudoperonospora cubensis. Nature of the experiment: Cucumber downy mildew (PSPECU) disease control on cucumber seedlings. Particulars: 1DP test at 100 ppm. As for the experimental part:
Technical grades of materials were dissolved in acetone, which were then mixed with nine volumes of water containing 110 ppm Triton X-100. The fungicide solutions were applied onto wheat seedlings using an automated booth sprayer to run-off. All sprayed plants were allowed to air dry prior to further handling. All fungicides were evaluated using the aforementioned method for their activity vs. all target diseases, unless stated otherwise. Wheat leaf blotch and brown rust activity were also evaluated using track spray applications, in which case the fungicides were formulated as EC formulations, containing 0.1% Trycol 5941 in the spray solutions. Example H: Evaluation of Fungicidal Activity: Cucumber Downy Mildew (Pseudoperonospora cubensis; Bayer Code […]) Cucumber seedlings (variety Bush Pickle) were grown in soil-less Metro mix, with one plant per pot, and used in the test when 12 to 14 days old. Plants were inoculated with a spore suspension 24 hr following fungicide treatments. […] After inoculation the plants were kept in a dew room at 22° C. with 100% relative humidity for 24 hr to permit spores to germinate and infect the leaf. The plants were then transferred to a greenhouse set at 20° C. until disease was fully expressed. […]

A further experiment relates to Uncinula necator. In words: Grape powdery mildew (UNCINE) disease control on grape seedlings. The settings on record: 1DP test at 100 ppm. As for the experimental part:
Technical grades of materials were dissolved in acetone, which were then mixed with nine volumes of water containing 110 ppm Triton X-100. The fungicide solutions were applied onto wheat seedlings using an automated booth sprayer to run-off. All sprayed plants were allowed to air dry prior to further handling. All fungicides were evaluated using the aforementioned method for their activity vs. all target diseases, unless stated otherwise. Wheat leaf blotch and brown rust activity were also evaluated using track spray applications, in which case the fungicides were formulated as EC formulations, containing 0.1% Trycol 5941 in the spray solutions. Example K: Evaluation of Fungicidal Activity: Grape Powdery Mildew (Uncinula necator; Bayer Code […]) Grape seedlings (variety Carignane) were grown in soil-less Metro mix, with one plant per pot, and used in the test when approximately 1 month old. Plants were inoculated 24 hr after fungicide treatment by shaking spores from infected leaves over test plants. Plants were maintained in a greenhouse set at 20° C. until disease was fully developed. Fungicide formulation, application and disease assessment on sprayed leaves followed the procedures as described in the Example A.

The subject of a further experiment is Rhyncosporium secalis. In words: Barley scald (RHYNSE) disease control on barley seedlings. The settings on record: 1DP test at 100 ppm. The protocol: Technical grades of materials were dissolved in acetone, which were then mixed with nine volumes of water containing 110 ppm Triton X-100. The fungicide solutions were applied onto wheat seedlings using an automated booth sprayer to run-off. All sprayed plants were allowed to air dry prior to further handling. All fungicides were evaluated using the aforementioned method for their activity vs. all target diseases, unless stated otherwise. Wheat leaf blotch and brown rust activity were also evaluated using track spray applications, in which case the fungicides were formulated as EC formulations, containing 0.1% Trycol 5941 in the spray solutions. Example J: Evaluation of Fungicidal Activity: Barley Scald (Rhyncosporium secalis; Bayer Code […]) Barley seedlings (variety Harrington) were propagated in soil-less Metro mix, with each pot having 8 to 12 plants, and used in the test when first leaf was fully emerged. Test plants were inoculated by an aqueous spore suspension of Rhyncosporium secalis 24 hr after fungicide treatments. After inoculation the plants were kept in a dew room at 20° C. with 100% relative humidity for 48 hr. The plants were then transferred to a greenhouse set at 20° C. for disease to develop. Fungicide formulation, application and disease assessment on the sprayed leaves followed the procedures as described in the Example A.

The mark [2] stands for this setting: 24 h, 1 Day Protectant, read-out: SEPTTR disease control rating, 1DP.
Setting [3] is: 72 h, 3 Day Curative, read-out: SEPTTR disease control rating, 3DC.
Where [4] appears, read: 24 h, 1 Day Protectant, read-out: PUCCRT disease control rating, 1DP.
The mark [5] stands for this setting: 72 h, 3 Day Curative, read-out: PUCCRT disease control rating, 3DC.
Where [6] appears, read: 24 h, 1 day protectant, read-out: PHAKPA 1DP (1 Day Protectant) disease control.
The mark [7] stands for this setting: 72 h, 3 day curative, read-out: PHAKPA 3DC (3 Day Curative) disease control.

The structures appear in SMILES notation. Read-outs that look alike come from different tables or passages of the source. Bounds are passed on as bounds.

In the case of `COc1ccnc(C(=O)N[C@@H](C)C(=O)O[C@@H](C)[C@@H](C)c2ccccc2C)c1OC(C)=O` [Example 264], the pest or weed control at 121.5 g/ha was under 80% in the experiment with Zymoseptoria tritici (setting [2]), under 80% in the experiment on Zymoseptoria tritici (setting [3]), over 80% in the experiment with Puccinia triticina (setting [4]) and over 80% with Puccinia triticina (setting [5]). Besides, the pest or weed control at 25 ppm with Phakopsora pachyrhizi (setting [6]) and in the experiment with Phakopsora pachyrhizi (setting [7]) was over 80% throughout. Moreover, in the experiment with Alternaria solani, the “ALTESO disease control rating” value is “B (≤80)”. Moreover, the “PSPECU disease control rating” value in experiment [1] is “B (≤80)”. Further, the “UNCINE disease control rating” value in the experiment with Uncinula necator is reported as “A (>80)”.
As to `COc1ccnc(C(=O)N[C@@H](C)C(=O)O[C@H](C)[C@H](C)c2ccccc2C)c1OC(C)=O` [Example 263], the pest or weed control at 121.5 g/ha with Zymoseptoria tritici (setting [2]), with Zymoseptoria tritici (setting [3]), in the experiment with Puccinia triticina (setting [4]) and in the experiment on Puccinia triticina (setting [5]) was under 80% in each case. Further, the figures for the pest or weed control at 25 ppm in the experiment on Phakopsora pachyrhizi (setting [6]) and in the experiment with Phakopsora pachyrhizi (setting [7]) were over 80% and under 80%, respectively. For the same molecule, in the experiment on Rhyncosporium secalis, the “RHYNSE disease control rating” value is “B (≤80)”.
